pKi: −log10 of the molar value. Structures can show the parent of a compound that is named as a salt. Where two headings read alike, the source gives them in different places.
Key:
[1] = biological target: T1, rat GABA A receptor α2β3γ2 (Rattus norvegicus, UniProt P18508+P23576); assay: [3H]flumazenil competition binding, GABA A α2β3γ2; conditions: for Ki: [3H]flumazenil 1 nM, SF9 cells expressing rat α2β3γ2, mean of two determinations, read-out: Ki[nM] ra2
T1 construct: expressed in transfected cells; host or cells: SF9 insect cells
Experimental: (§1) The affinity of compounds at GABA A receptor subtypes was measured by competition for [^3H]flumazenil (85 Ci/mmol; Amersham) binding to SF9 cells expressing rat receptors of composition α1β3γ2, α2β3γ2, α3β3γ2 and α5β3γ2.
(§2) Cellpellets were suspended in Krebs-tris buffer (4.8 mM KCl, 1.2 mM CaCl2, 1.2 mM MgCl2, 120 mM NaCl, 15 mM Tris; pH 7.5; binding assay buffer), homogenized by polytron for ca. 15 sec on ice and centrifuged in UZ for 30 min at 4° C. (100000 g; rotor: TFT 4594=300000 rpm). The cellpellets were resuspended in Krebs-tris buffer and homogenized by polytron for ca. 15 sec on ice. Aliquots of 1 ml were prepared, protein was measured (Bradford method) and the resulting membrane aliquots were stored at −70° C.
(§3) Radioligand binding assays were carried out in a volume of 200 μL (96-well plates) which contained 100 μL of cells, [^3H]flumazenil at a concentration of 1 nM for α1α2α3 subunits and 0.5 nM for α5 subunits and the test compound in the range of
(§4) 10^−10−3×10^−6 M. Nonspecific binding was defined by 10^−5 M diazepam and typically represented less than 5% of the total binding. Assays were incubated to equilibrium for 1 hour at 4° C. and harvested onto GF/C uni-filters (Packard) by filtration using a Packard harvester and washing with ice-cold wash buffer (50 mM Tris; pH 7.5). After drying, filter-retained radioactivity was detected by liquid scintillation counting. Ki values were calculated using Excel-Fit (Microsoft) and are the means of two determinations.

[2] = biological target: T2, rat GABA A receptor α1β3γ2 (Rattus norvegicus, UniProt P18508+P62813); assay: [3H]flumazenil competition binding, GABA A α1β3γ2; conditions: for Ki: [3H]flumazenil 1 nM, SF9 cells expressing rat α1β3γ2, mean of two determinations, read-out: Ki[nM] ra1
T2 construct: expressed in transfected cells; host or cells: SF9 insect cells
Experimental: as §1, §2, §3, §4

[3] = biological target: T3, rat GABA A receptor α5β3γ2 (Rattus norvegicus, UniProt P18508+P19969); assay: [3H]flumazenil competition binding, GABA A α5β3γ2; conditions: for Ki: [3H]flumazenil 0.5 nM, SF9 cells expressing rat α5β3γ2, mean of two determinations, read-out: Ki[nM] ra5
T3 construct: expressed in transfected cells; host or cells: SF9 insect cells
Experimental: as §1, §2, §3, §4

[4] = biological target: T4, rat GABA A receptor α3β3γ2 (Rattus norvegicus, UniProt P18508+P20236); assay: [3H]flumazenil competition binding, GABA A α3β3γ2; conditions: for Ki: [3H]flumazenil 1 nM, SF9 cells expressing rat α3β3γ2, mean of two determinations, read-out: Ki[nM] ra3
T4 construct: expressed in transfected cells; host or cells: SF9 insect cells
Experimental: as §1, §2, §3, §4

[5] = in vivo; cited from earlier work
[6] = McNamara and Skelton, Psychobiology 21:101-108; cited from earlier work

## 3-Chloro-10-(5-cyclopropyl-1,2,4-oxadiazol-3-yl)-7-(1H-indol-3-ylmethyl)-9H-imidazo[1,5-a][1,2,4]triazolo[4,3-d][1,4]benzodiazepine [Example 61]
[1]
  Ki: 53 nM
[2]
  Ki: 67.3 nM
[3]
  Ki: 1.3 nM
[4]
  Ki: 18.9 nM

## CCOC(=O)c1ncn2c1Cn1c(Cc3ccncc3)nnc1-c1cc(Cl)ccc1-2 (as salt: hydrochloride) [Example 69, Ethyl 3-chloro-7-(pyridin-4-ylmethyl)-9H-imidazo[1,5-a][1,2,4]triazolo[4,3-d][1,4]-benzodiazepine-10-carboxylate]
other
  melting point: 213 °C

## CCOC(=O)c1ncn2c1Cn1cnnc1-c1cc(OC)ccc1-2 [Example 1, Ethyl 3-methoxy-9H-imidazo[1,5-a][1,2,4]triazolo[4,3-d][1,4]-benzodiazepine-10-carboxylate]
[1]
  pKi: 7.24
other
  melting point: 197 °C
[2]
  pKi: 7.51
[3]
  Ki: 1.3 nM
[4]
  pKi: 7.41

## Cc1ccc2c(c1)-c1nncn1Cc1c(-c3nc(C4CC4)no3)ncn1-2 [Example 6, 10-(3-Cyclopropyl-1,2,4-oxadiazol-5-yl)-3-methyl-9H-imidazo[1,5-a][1,2,4]triazolo[4,3-d][1,4]benzodiazepine]
[1]
  Ki: 362 nM
other
  melting point: 253 to 256 °C
[2]
  Ki: 408 nM
[3]
  pKi: 7.97
[4]
  Ki: 149 nM

## CCOC(=O)c1ncn2c1Cn1cnnc1-c1cc(Cl)ccc1-2 [Example 13, Ethyl 3-chloro-9H-imidazo[1,5-a][1,2,4]triazolo[4,3-d][1,4]benzodiazepine-10-carboxylate]
[1]
  pKi: 7.26
other
  melting point: 226 to 227 °C
[2]
  pKi: 7.46
[3]
  Ki: 1.2 nM
[4]
  pKi: 7.63

## CCOC(=O)c1ncn2c1Cn1c(C)nnc1-c1cc(OC)ccc1-2 [Example 19, Ethyl 3-methoxy-7-methyl-9H-imidazo[1,5-a][1,2,4]triazolo[4,3-d][1,4]-benzodiazepine-10-carboxylate]
[1]
  pKi: 6.30
other
  melting point: 210 °C
[2]
  pKi: 6.32
[3]
  Ki: 14.5 nM
[4]
  pKi: 6.32

## CCOC(=O)c1ncn2c1Cn1c(CO)nnc1-c1cc(OC)ccc1-2 [Example 25, Ethyl 7-hydroxymethyl-3-methoxy-9H-imidazo[1,5-a][1,2,4]triazolo[4,3-d][1,4]-benzodiazepine-10-carboxylate]
[1]
  Ki: 123 nM
other
  melting point: 255 °C
[2]
  pKi: 7.02
[3]
  pKi: 8.23
[4]
  Ki: 107 nM

## CCOC(=O)c1ncn2c1Cn1c(Cc3c[nH]c4c(OC)cccc34)nnc1-c1cc(OC)ccc1-2 [Example 37, Ethyl 3-methoxy-7-[(7-methoxy-1H-indol-3-yl)methyl]-9H-imidazo[1,5-a][1,2,4]triazolo[4,3-d][1,4]-benzodiazepine-10-carboxylate]
[1]
  Ki: 266 nM
[2]
  Ki: 296 nM
[3]
  Ki: 8.2 nM
[4]
  Ki: 162 nM

## CCOC(=O)c1ncn2c1Cn1c(Cc3c[nH]c4ccccc34)nnc1-c1cc(Br)ccc1-2 [Example 47, Ethyl 3-bromo-7-(1H-indol-3-ylmethyl)-9H-imidazo[1,5-a][1,2,4]triazolo[4,3-d][1,4]-benzodiazepine-10-carboxylate]
[1]
  Ki: 225 nM
other
  melting point: 258 °C (dec.)
[2]
  Ki: 694 nM
[3]
  pKi: 7.88
[4]
  Ki: 100 nM

## CCOC(=O)c1ncn2c1Cn1c(Cc3cccc(OC)c3)nnc1-c1cc(Br)ccc1-2 [Example 50, Ethyl 3-bromo-7-(3-methoxy-benzyl)-9H-imidazo[1,5-a][1,2,4]triazolo[4,3-d][1,4]-benzodiazepine-10-carboxylate]
[1]
  Ki: 409 nM
other
  melting point: 111 to 113 °C
[2]
  Ki: 1000 nM
[3]
  pKi: 7.84
[4]
  Ki: 220 nM

## CCOC(=O)c1ncn2c1Cn1c(Cc3ccc(-c4ccccc4)cc3)nnc1-c1cc(OC)ccc1-2 [Example 54, Ethyl 3-methoxy-7-[(biphenyl-4-yl)methyl]-9H-imidazo[1,5-a][1,2,4]triazolo[4,3-d][1,4]-benzodiazepine-10-carboxylate]
[1]
  Ki: 148 nM
[2]
  pKi: 7.19
[3]
  pKi: 7.89
[4]
  Ki: 108 nM

## Clc1ccc2c(c1)-c1nnc(Cc3ccccc3)n1Cc1c(-c3noc(C4CC4)n3)ncn1-2 [Example 63, 7-Benzyl-3-chloro-10-(5-cyclopropyl-1,2,4-oxadiazol-3-yl)-9H-imidazo[1,5-a][1,2,4]triazolo[4,3-d][1,4]benzodiazepine]
[1]
  pKi: 7.97
[2]
  pKi: 7.90
[3]
  Ki: 0.6 nM
[4]
  pKi: 8.25

## CCOC(=O)c1ncn2c1Cn1c(Cc3ccncc3)nnc1-c1cc(Cl)ccc1-2 [Example 69, Ethyl 3-chloro-7-(pyridin-4-ylmethyl)-9H-imidazo[1,5-a][1,2,4]triazolo[4,3-d][1,4]-benzodiazepine-10-carboxylate]
[1]
  Ki: 308 nM
[2]
  Ki: 360 nM
[3]
  pKi: 8.15
[4]
  Ki: 158 nM

## COC(=O)c1cc2c(cn1)[nH]c1ccccc12 [β-CCM]
[5]
  proconvulsant or convulsant activity: proconvulsant or convulsant
[6]
  spatial learning in the Morris watermaze: enhance spatial learning

## Ethyl 3-methoxy-7-(1H-indol-3-ylmethyl)-9H-imidazo[1,5-a][1,2,4]triazolo[4,3-d][1,4]-benzodiazepine-10-carboxylate [Example 20]
[1]
  Ki: 284 nM
[2]
  Ki: 803 nM
[3]
  Ki: 10.7 nM
[4]
  Ki: 191 nM
